SMILES strings stand for the structures. Read-outs that look alike come from different tables or passages of the source.

As usually defined, the IC50 is the concentration that inhibits the measured activity by half.

Data set [1] deals with Caco-2 cells. The data set is described as follows: C1-BODIPY-C12 fatty acid uptake (transport) inhibition in Caco-2 cells. Format: cell-based, human. The following applies: for % Transport Standard Assay: compound at f.c. 40 μM, Caco-2 cells, control = 100, mean ± SD of 3-5 experiments. The source says: The Caco-2 cell line is derived from a human adenocarcinoma and is able to undergo differentiation into polarized epithelial cells that show a brush border phenotype and form well-developed and functional tight junction complexes [Fogh et al., J. Natl. Cancer Inst., 1977, 59:221-6; Grasset et al., Am. J. Physiol., 1984, 247:C260-7]. This cell line is used as an in vitro model to predict human intestinal absorption and secretion [Hilgers et al., Pharm. Res., 1990, 7:902-10]. Caco-2 cells were maintained in Earl's minimal essential medium (MEM) with 20% FBS in a 95% air 5% CO2 atmosphere at 37° C., as previously described [Sandoval et al., Arch. Biochem. Biophys., 2008, 477:363-71]. For growth and differentiation, the BD Biosciences Intestinal Epithelium Differentiation Media Pack was used. Cells were plated in basal seeding medium at a density of 2.5×10^5 cells/cm^2 on a collagen-coated black-clear 96-well plate (BD Biosciences). After 72 h in culture, the basal seeding medium was removed and Entero-STIM medium was added to each well. Both media contained mito-serum extender. After another 24 h, cells were serum-starved for one hour in MEM without phenol red prior to performing the C1-BODIPY-C12 uptake assay. HepG2 cells (ATCC, HB-8065) were cultured according to the ATCC protocol. The cells were seeded in 96-well collagen coated plates at a seeding density of 2.5×10^5 cells/cm^2. […] For differentiation into adipocytes, 3T3-L1 cells were treated with methylisobutylxanthine (0.5 mM), dexamethasone (1.0 μM), and insulin (1.75 μM) in DMEM and 10% FBS for 48 hours as described by Student et al. [Student et al., J. Biol. Chem., 1980, 255:4745-50]. After 48 hour incubation with differentiation medium, cells were treated with DMEM and 10% FBS supplemented with insulin (1.75 μM) for 48 hours. Cells were subsequently maintained in DMEM and 10% FBS for an additional 3-6 days until fully differentiated. The number of cells per well in screening trials were determined using the FluoReporter® Blue Fluorometric DNA Quantitation Kit from Invitrogen.
Caco-2 cells were plated in basal seeding medium at a density of 2.5×10^5 cells/cm^2 in collagen-coated 96-well plates, and differentiated as detailed above. HepG2 cells were cultured in EMEM. Differentiated 3T3-L1 adipocytes were maintained in modified DMEM and 10% FBS. After another 24 h, cells were serum-starved for 1 h in MEM without phenol red prior to performing the C1-BODIPY-C12 transport assay [Sandoval et al., Arch. Biochem. Biophys., 2008, 477:363-71; Arias-Barrau et al., Methods Mol. Biol., 2009, 580:233-49]. In a standard reaction, serum-free MEM was removed from the wells and 50 μL of the test compound in MEM (MEM alone for controls) were added to each well and incubation was continued for 1 h. Then 50 μL of C1-BODIPY-C12 mixture (final concentrations 5 μM C1-BODIPY-C12; 5 μM FAF BSA; 1.97 mM trypan blue) was added to each well, and uptake was allowed to take place for 15 min. Cell-associated fluorescence was measured as detailed above. […] Ligand competition curves were fit by nonlinear least-squares regression using one-site competition and dose-response models and Prism software (GraphPad software, Inc., San Diego, Calif.) in order to determine the compound concentration that reduced C1-BODIPY-C12 fluorescence readout by 50% (IC50). Ki values were calculated from the IC50 using the equation of Cheng and Prusoff as detailed in Li et al. [J. Lipid Res., 2008, 49:230-44] and KT values published by Sandoval et al. [Sandoval et al., Arch. Biochem. Biophys., 2008, 477:363-71].

For a further data set, the system named is HepG2 cells. The data set is described as follows: C1-BODIPY-C12 fatty acid uptake inhibition in HepG2 cells. The format is cell-based. As for the experimental part: (§1) This cell line is used as an in vitro model to predict human intestinal absorption and secretion [Hilgers et al., Pharm. […] For growth and differentiation, the BD Biosciences Intestinal Epithelium Differentiation Media Pack was used. Cells were plated in basal seeding medium at a density of 2.5×10^5 cells/cm^2 on a collagen-coated black-clear 96-well plate (BD Biosciences). After 72 h in culture, the basal seeding medium was removed and Entero-STIM medium was added to each well. Both media contained mito-serum extender. After another 24 h, cells were serum-starved for one hour in MEM without phenol red prior to performing the C1-BODIPY-C12 uptake assay. […] The cells were seeded in 96-well collagen coated plates at a seeding density of 2.5×10^5 cells/cm^2. […] Cells were subsequently maintained in DMEM and 10% FBS for an additional 3-6 days until fully differentiated. The number of cells per well in screening trials were determined using the FluoReporter® Blue Fluorometric DNA Quantitation Kit from Invitrogen.
(§2) Caco-2 cells were plated in basal seeding medium at a density of 2.5×10^5 cells/cm^2 in collagen-coated 96-well plates, and differentiated as detailed above. HepG2 cells were cultured in EMEM. Differentiated 3T3-L1 adipocytes were maintained in modified DMEM and 10% FBS. After another 24 h, cells were serum-starved for 1 h in MEM without phenol red prior to performing the C1-BODIPY-C12 transport assay [Sandoval et al., Arch. […] In a standard reaction, serum-free MEM was removed from the wells and 50 μL of the test compound in MEM (MEM alone for controls) were added to each well and incubation was continued for 1 h. […] Cell-associated fluorescence was measured as detailed above.

A further data set concerns 3T3-L1 adipocytes. The data set is described as follows: C1-BODIPY-C12 fatty acid uptake inhibition in 3T3-L1 adipocytes. The format is cell-based. As for the experimental part: as §1, §2
In data set [2] the test system is Caco-2 cells. The data set is described as follows: Glucose analogue 2-NBDG uptake into Caco-2 cells. The format is cell-based, human. To be noted: differentiated Caco-2 cells. Here is the method: To assess the impact of selected compounds upon glucose transport, Caco-2 cells were seeded and differentiated in 96-well collagen coated plates as detailed above and incubated for 1 h with compound diluted in PBS. […] Cells were incubated 30 min at 37° C., 5% CO2 to allow uptake. The medium was removed by aspiration and cells were rinsed once with 100 μL, of PBS.

Data set [3] deals with long chain acyl-CoA synthetase (Acsl). The data set is described as follows: Oleoyl-CoA synthetase (Acsl) activity in Caco-2 cell extracts after compound treatment. Format: biochemical, human. To be noted: Caco-2 cells pretreated 1 h; for oleoyl CoA synthetase activity: activity in total cell extracts. As for the experimental part:
Caco-2 cells were grown and differentiated in 60 mm collagen coated dishes (at a seeding density 2.5×10^5 cells/cm^2). Following growth and differentiation as detailed above, cells were serum starved for 1 h in MEM and then were treated for 1 h with selected compounds at specified final concentrations. The media was subsequently removed by aspiration and cells washed once with 5 mL PBS, trypsinized using standard procedures and collected by centrifugation. The cell pellet was resuspended in 1 mL STE lysis buffer (10 mM Tris-HCl (pH 8.0); 0.1M NaCl; 1 mM EDTA) and sonicated on ice for 2 min using 3 sec on/off pulses. […] In parallel experiments, untreated cells were used to prepare the cell extract for Acsl activity measurements where the compound of interest was added directly to the reaction mixture.
Acyl-CoA formed during the reaction remained in the aqueous fraction and was quantified by scintillation counting. Data were expressed as nmol oleoyl CoA formed/min/mg protein.

In data set [4] the test system is Caco-2 cells. The data set is described as follows: MTT cytotoxicity assay in Caco-2 cells.
Procedure: The MTT [3-(4,5-dimethylthiazol-2-yl)-2,5-diphenyltetrazolium bromide] assay was used to determine if compounds of interest were cytotoxic to Caco-2 cells [Mosmann, J. Immunol. […] Cells were cultured and differentiated as detailed above in collagen-coated 96-well plates. Cells were incubated at 37° C., 5% CO2 for at least one hour and up to 72 h in MEM containing the appropriate dilution of compound. Following this incubation period, the media with compound was removed and 110 μL, of MTT reagent (prepared in MEM (final concentration 0.45 mg/mL MTT)) was added. After a 3 h incubation period, the reaction was terminated by the addition of 150 μL, stop buffer (0.01N HCl in 10% SDS). The plates were incubated for 1 h at 37° C. to facilitate solubilization of formazan crystals; color development was read at A570.
Where [5] appears, read: C1-BODIPY-C12 uptake, average of 3 experiments ± SEM, read-out: Caco-2 IC50.
Setting [6] is: Table 3, structurally related compounds in Caco-2 cells, read-out: IC50.
Setting [7] is: Table 4, derived from laboratory data, read-out: IC50 (μM ± SE).
Setting [8] is: Homo sapiens, Caco-2, Table 4, derived from laboratory data, read-out: IC50 (μM ± SE).
The mark [9] stands for this setting: Homo sapiens, Table 3, structurally related compounds in Caco-2 cells, read-out: IC50.

For `COc1cc(/C=C2/SC(=S)N(c3cccc(Cl)c3)C2=O)cc(Br)c1O` [Compound I-1, (5E)-5-[(3-bromo-4-hydroxy-5-methoxyphenyl)methylene]-3-(3-chloropheny1)-2-thioxothiazolidin-4-one], the 50% inhibitory concentration (IC50) worked out at 3.99 ± 0.32 µM in the data set on Caco-2 cells [1] (setting [5]); 3.99 ± 0.32 µM in the data set with Caco-2 cells [1] (setting [6]); 3.99 ± 0.32 µM with Caco-2 cells [1] (setting [7]); 7.55 ± 1.23 µM in the data set with HepG2 cells; 231 ± 33.5 µM in the data set with 3T3-L1 adipocytes. For the same compound, in the data set on Caco-2 cells [1], the “% Transport Standard Assay” value came out at 46 ± 3%. In addition, the “glucose (2-NBDG) transport” value in the data set on Caco-2 cells [2] (20 μM) is “not affected”. Besides, the “inhibition of oleoyl CoA synthetase activity” value in data set [3] (50 μM (10 times the IC50)) was “about 50%”.

For `COc1cc(/C=C2/SC(=S)N(c3cccc(Cl)c3)C2=O)ccc1O` [Compound I-2], the values for the 50% inhibitory concentration (IC50) in the data set with Caco-2 cells [1] (setting [8]) and in the data set with Caco-2 cells [1] (setting [9]) were 121 ± 25.4 µM and 121 ± 25 µM, respectively.

For the compound `COc1cc(/C=C2/SC(=S)N(c3cccc(F)c3)C2=O)cc(Br)c1O` [Compound I-4], in the data set on Caco-2 cells [1] (setting [9]), the IC50 was determined as 4.7 ± 0.8 µM.

In the case of `OCC(CCc1c[nH]c2ccccc12)c1c[nH]c2ccccc12` (stereo not shown) [Compound V-1, 2,4-bis(1H-indol-3-yl)butan-1-ol], the IC50 with Caco-2 cells [1] (Homo sapiens, Caco-2, C1-BODIPY-C12 uptake, average of 3 experiments ± SEM, read-out: Caco-2 IC50) worked out at 29.2 ± 3.64 µM; in the data set on HepG2 cells (Homo sapiens, HepG2), 84.1 ± 14.1 µM; with 3T3-L1 adipocytes (Mus musculus, 3T3-L1) it was 143 ± 22.4 µM. Besides, the “% Transport Standard Assay” value with Caco-2 cells [1] stood at 52 ± 2%. Moreover, in the data set with Caco-2 cells [2] (50 μM), the “glucose (2-NBDG) transport” value was “reduced 2-NBDG transport slightly”. Besides, in data set [3], the “oleoyl CoA synthetase activity” value is given as “not reduced”. In addition, the “cellular toxicity (MTT, mitochondrial function)” value (“cellular toxicity” below) in the data set with Caco-2 cells [4] (100 μM for 24 h) is “not toxic”.

Take `O=c1cc(-c2ccc([N+](=O)[O-])cc2)[nH]c2c(-c3ccc(Cl)cc3)c(Cc3ccccc3)nn12` [II-1, 2-benzy1-3-(4-chloropheny1)-5-(4-nitropheny1)-1H-pyrazolo[5,1-b]pyrimidin-7-one]: the half-inhibitory concentration (IC50) with Caco-2 cells [1] (setting [5]) stood at 6.34 ± 0.93 µM; with Caco-2 cells [1] (setting [6]), 6.34 ± 0.93 µM; with Caco-2 cells [1] (setting [7]), 6.34 ± 0.93 µM; in the data set with HepG2 cells it was 10.2 ± 1.26 µM; in the data set with 3T3-L1 adipocytes, 901 ± 205 µM. Moreover, the “% Transport Standard Assay” value in the data set with Caco-2 cells [1] worked out at 54 ± 1%. The “glucose (2-NBDG) transport” value in the data set on Caco-2 cells [2] (20 μM) is “not affected”. Besides, the “oleoyl CoA synthetase activity” value in data set [3] was “not reduced”. Moreover, the “cellular toxicity” value with Caco-2 cells [4] (50 μM for 24 h) was “not toxic”.

For the compound `Oc1c(C2=NCCNC(C(F)(F)F)=C2)ccc2ccccc12` [III-1, 2-[7-(trifluoromethyl)-2,3-dihydro-1H-1,4-diazepin-5-yl]naphthalen-1-ol], the IC50 is 4.93 ± 0.4 µM in the data set on Caco-2 cells [1] (setting [8]); 6.72 ± 0.81 µM in the data set on HepG2 cells (Homo sapiens, HepG2); 52.5 ± 6.7 µM in the data set with 3T3-L1 adipocytes (Mus musculus, 3T3-L1). Moreover, the “% Transport Standard Assay” value in the data set with Caco-2 cells [1] stood at 35 ± 1%. In the data set with Caco-2 cells [2] (20 μM), the “glucose (2-NBDG) transport” value is “not affected”. In addition, in data set [3], the “oleoyl CoA synthetase activity” value is “not reduced”. The “cellular toxicity” value in the data set with Caco-2 cells [4] (50 μM for 24 h) is listed as “not toxic”.

For `O=C1C=CC=CC1=C1NNC2(S1)C(=O)Nc1ccc(Br)cc12` (stereo not shown) [IV-1, 5′-bromo-5-(6-oxocyclohexa-2,4-dien-1-ylidene)spiro[1,3,4-thiadiazolidine-2,3′-1H-indole]-2′-one], the half-maximal inhibitory concentration (IC50) in the data set on Caco-2 cells [1] (setting [8]) is 6.66 ± 0.64 µM. The “% Transport Standard Assay” value in the data set with Caco-2 cells [1] was determined as 27 ± 1%. Moreover, the “glucose (2-NBDG) transport” value with Caco-2 cells [2] (20 μM) was “not affected”. The “oleoyl CoA synthetase activity” value in data set [3] was “not reduced”. The “cellular toxicity” value in the data set with Caco-2 cells [4] (50 μM for 24 h) is recorded as “not toxic”.

Regarding `O=C1Nc2ccccc2C12CN=C(c1ccccc1O)S2` (stereo not shown) [IV-2], the IC50 with Caco-2 cells [1] (setting [6]) and in the data set on Caco-2 cells [1] (setting [7]) was 11.9 ± 1.43 µM each time.

As to `O=C1Nc2ccc(Br)cc2C12CN=C(c1ccccc1)S2` (stereo not shown) [IV-3], the IC50 in the data set with Caco-2 cells [1] (setting [6]) and in the data set with Caco-2 cells [1] (setting [7]) was 4.84 ± 0.69 µM throughout.

The values are drawn from patent publication US8410118B2, “Inhibitors of fatty acid uptake and methods of use” (NUtech Ventures, priority 2009, dated 2013).
